Experimental data taken from article PMC4686731, “Screening of Pharmacologically Active Small Molecule Compounds Identifies Antifungal Agents Against Candida Biofilms” (Frontiers in Microbiology, 2015).
≈ marks a conversion by molar mass, not a printed value. Counter-ions that a name gives are not always drawn. Like-named read-outs stand apart in the source and are kept apart here.

Tests used:
[1] = system: C. albicans strain SC5314; experiment: High-throughput screening (HTS) with antifungal susceptibility test, CellTiter-Glo ATP read-out; assay type: cell-based, Candida albicans; conditions: for inhibition at 10 µM: Candida albicans, SC5314, 24 h
Procedure: (§1) The in vitro susceptibility of well-characterized wild-type C. albicans strain SC5314, which was provided by Prof. N.A.R. Gow (University of Aberdeen, Aberdeen, UK) was tested against 1280 compounds from the Library of Pharmacologically Active Compounds (LOPAC^1280TM, Sigma–Aldrich, USA). The screen was performed with C. albicans SC5314, and hits were further confirmed with the type strains C. dubliniensis MYA 577, C. glabrata ATCC 2001, C. kusei ATCC 6258, C. palapsilosis ATCC 22019, and C. tropicalis ATCC13803.
High-Throughput Screening was conducted using ASTs, according to the standard Clinical and Laboratory Standard Institute (CLSI) method ([Watamoto et al., 2009]). Inocula from 24-h yeast cultures on Sabouraud’s dextrose agar (SDA) (Gibco, UK) were adjusted to a turbidity equivalent to a 0.5 McFarland standard at 520 nm using a spectrophotometer. The suspension was diluted further with RPMI 1640 medium (Gibco, UK) to yield an inoculum concentration of 0.5 × 10^3 to 2.5 × 10^3 cells/mL. C. albicans was incubated with small-molecule compounds (10 μM) from LOPAC^1280TM, which total volume was 150 μL, in 96-well plates at 37°C for 24 h to evaluate the antifungal effects. After incubation, the viability of the fungal cells was determined using the CellTiter-Glo luminescent cell viability kit (Promega, USA). The CellTiter-Glo reagent (150 μL) was added to the medium and incubated for 15 min at room temperature with shaking at 900 rpm. The luminescent signals were detected using a luminometer (GloMax Discover System, Promega, USA). The resulting signal intensity corresponds to ATP amounts and thus to the number of viable microbial cells upon drug exposure ([Stylianou et al., 2014]). In all 96-well plates, 100 and 0% growth controls were included as microbes plus dimethyl sulfoxide (0.1%) and microbes plus amphotericin B (100 μM), respectively. All assays were performed at least as two biological replicates in triplicate. The ATP level of C. albicans cells, which corresponded to the cell metabolic activity and viability, was calculated for each compound using the following equation (Figure 1A).
Percentageinhibition=100 × 1-{(experimental-positivecontrolaverage)/(negativecontrolaverage-positivecontrolaverage)}
Wells were scored as hits if the percentage inhibition was >50%. Hit compounds were evaluated further to assess their antifungal effects.

[2] = system: C. albicans SC5314; experiment: AST broth microdilution, high cell density planktonic mode; assay type: cell-based, Candida albicans; conditions: 50% MIC, planktonic mode, 1 × 10^7 cells/mL, 24 h, read-out: Minimum inhibitory concentration (MIC)
Procedure: as §1
(§2) To investigate the antifungal effects of the hit compounds, ASTs were conducted using broth microdilution assays with high cell densities of the planktonic mode, adhesion phase and biofilm mode against Candida strains (C. albicans, C. dubliniensis, C. glabrata, C. kusei, C. palapsilosis, and C. tropicalis). First, high density cell (1 × 10^7 cells/mL) suspensions were added to the RPMI medium containing each hit compound (10–1000 μM) in 96-well plates and incubated at 37°C for 24 h. Next, the 50% minimum inhibitory concentrations (MICs) of high-density Candida planktonic cultures were determined using the CellTiter-Glo luminescent cell viability kit, as described above. The antifungal effects of the hit compounds were also evaluated in the adhesion phase and the biofilm mode, in the same manner as the planktonic mode. Candida biofilms were produced as described previously ([Jin et al., 2004]). In brief, Candida cells were grown on SDA at 37°C for 18 h. A loopful of the yeast culture was then inoculated into yeast nitrogen base (YNB) (Difco, USA) medium supplemented with 50 mM glucose. After overnight broth culture in a rotary shaker at 75 rpm, the cells were washed twice with 20 mL of PBS (pH 7.2, 0.1 M). The yeast cells were re-suspended in YNB supplemented with 100 mM glucose and adjusted to an optical density of 0.38 (1 × 10^7 cells/mL) at 520 nm. This standardized cell suspension was used immediately to form biofilms in the wells of 96-well polystyrene culture plates (Iwaki, Tokyo, Japan). First, the cells were incubated for 90 min at 37°C in a shaker at 75 rpm to allow yeast adherence to the well surface (adhesion phase), before the medium was aspirated and each well was washed once with PBS to remove non-adherent cells. YNB containing 100 mM glucose was then pipetted into each well and the plate was incubated at 37°C in a shaker at 75 rpm for 24 h. Non-adherent cells were removed by pipetting and the biofilms were washed twice with PBS. Following this biofilm growth phase, microscopic examination of the cultures was performed to exclude contamination. These ASTs were repeated on three different occasions.

[3] = system: C. albicans SC5314 biofilm; experiment: AST, biofilm mode; assay type: cell-based; conditions: Candida albicans, SC5314; biofilm mode (24 h biofilm); read-out: Minimum inhibitory concentration (MIC)
Procedure: as §1, §2

[4] = system: C. albicans SC5314; experiment: AST, adhesion phase; assay type: cell-based; conditions: Candida albicans, SC5314, 1.5 h; adhesion phase (90 min adherence); read-out: Minimum inhibitory concentration (MIC)
Procedure: as §1, §2

[5] = compound 10 μM, 0.5 × 10^3 to 2.5 × 10^3 cells/mL, 37°C, 24 h

CCCCCCCCCCCCCCCC(=O)OC(CC(=O)O)C[N+](C)(C)C.[Cl-] (racemic) [Palmitoyl-DL-carnitine chloride]
percent inhibition of the metabolic activity (ATP level) of C. albicans [1, 5]: 76.0%

C[C@@H]1[C@H](O)[C@@H](C)/C=C/C=C/C=C/C=C/C=C/C=C/C=C/[C@H](O[C@@H]2O[C@H](C)[C@@H](O)[C@H](N)[C@@H]2O)C[C@@H]2O[C@](O)(C[C@@H](O)C[C@@H](O)[C@H](O)CC[C@@H](O)C[C@@H](O)CC(=O)O[C@H]1C)C[C@H](O)[C@H]2C(=O)O [AMB, amphotericin B]
MIC [2]: 3.9 µM (≈ 3.6 µg/mL) | MIC ([2]; Candida albicans, SC5314, 24 h): < 3.9 µM | MIC [3]: 62.5 µM (≈ 57.8 µg/mL) | MIC [4]: 15.6 µM (≈ 14.4 µg/mL)

COc1ccc2c(c[n+](C)c3c4cc5c(cc4ccc23)OCO5)c1OC [Chelerythrine chloride]
inhibition at 10 µM ([1]; compound 10 μM, 0.5 × 10^3 to 2.5 × 10^3 cells/mL, 37°C, 24 h, read-out: percent inhibition of the metabolic activity (ATP level) of C. albicans): 82.4%

Cc1cc(N)c2ccccc2[n+]1CCCCCCCCCC[n+]1c(C)cc(N)c2ccccc21.O.[Cl-].[Cl-] [Dequalinium chloride hydrate]
percent inhibition of the metabolic activity (ATP level) of C. albicans [1, 5]: 71.5%

CN[C@@H]1C[C@@H](c2ccc(Cl)c(Cl)c2)c2ccccc21 [Indatraline hydrochloride]
inhibition at 10 µM ([1]; read-out: percent inhibition of the metabolic activity (ATP level) of C. albicans, compound 10 μM, 0.5 × 10^3 to 2.5 × 10^3 cells/mL, 37°C, 24 h): 85.2%
